According to patent publication US20230312571A1, “RING-MODIFIED PROLINE SHORT PEPTIDE COMPOUND AND USE THEREOF” (priority 2021, published 2023):
pEC50, pIC50: −log10 of the molar value. Read-outs that look alike come from different tables or passages of the source.

Experiments:
SARS-CoV-2 Mpro = SARS-CoV-2 Mpro (Severe acute respiratory syndrome coronavirus 2 (2019-nCoV) (SARS-CoV-2), UniProt P0DTD1); assay: In vitro anti-novel coronavirus Mpro protease activity (fluorescent substrate cleavage); format: biochemical
Experimental: The compound was dissolved in DMSO, and diluted in a 3-fold gradient with Echo655 according to the concentration requirements to 10 concentration points, and duplicate tests were set at each concentration, and the diluted solution was added to a 384-well plate. Mpro protein and substrate were diluted with test buffer (100 mM NaCl, 20 mM Tris-HCl, 1 mM EDTA), and Mpro protein was added to the 384-well test plate, incubated with the compound for 30 min at room temperature, and then the substrate was added thereto, and the test concentration of Mpro protein was 25 nM, and the test concentration of substrate was 25 µM. After incubating for 60 minutes in a 30° C. constant temperature incubator, the fluorescence signal value of Ex/Em=340 nm/490 nm was detected by microplate reader. At the same time, the background well containing the substrate and compound but not containing Mpro protein was detected as control.

coronavirus HCoV OC43 = assay: In vitro anti-coronavirus activity by cytopathic model (CPE, CellTiter Glo); format: cell-based; details: HCoV OC43 100 TCID50/well, MRC5 cells, 5 days
Experimental: MRC5 cells and coronavirus HCoV OC43 were purchased from ATCC.
MRC5 cells were cultured in MEM (Sigma) medium supplemented with 10% fetal bovine serum (Excell), 1% double antibody (Hyclone), 1%L-glutamine (Gibco) and 1% non-essential amino acids (Gibco). MEM (Sigma) medium supplemented with 5% fetal bovine serum (Excell), 1% double antibody (Hyclone), 1% L-glutamine (Gibco) and 1% non-essential amino acid (Gibco) was used as the experimental culture medium.
Cells were inoculated into a 96 microwell plate at a certain density (Table 6) and cultured overnight in an incubator at 5% CO2 and 37° C. On the second day, the compound was added after doubling dilution (8 concentration points, duplicate wells), with 50 µL per well. Then the diluted virus was added to the cells at 100 TCID50 per well, 50 µL per well. Cell control (cell without compound treatment or virus infection), virus control (cell infected with virus without compound treatment) and culture medium control (only culture medium) were set. The final volume of the culture medium in this experiment was 200 µL, and the final concentration of DMSO in the culture medium was 0.5%. Cells were cultured in a 5% CO2, 33° C. incubator for 5 days. Cell viability was detected using the cell viability assay kit CellTiter Glo (Promega). Cytotoxicity experiments were performed under the same conditions as antiviral experiments, but without virus infection.
The antiviral activity and cytotoxicity of the compound were represented by the inhibition rate (%) and cell viability (%) of the compound on the cytopathic effect caused by the virus at different concentrations, respectively. The calculation formula is as follows: […]
GraphPad Prism was used to perform nonlinear fitting analysis on the inhibition rate and cell viability of the compound, and the half effective concentration (EC50) and half cytotoxic concentration (CC50) of the compound were calculated.

[1] = test system: SARS-CoV-2 virus (Novel coronavirus βCoV/KOR/KCDC03/2020 strain); assay: Anti-novel coronavirus activity in Vero cells (immunofluorescence, high-content imaging); format: cell-based; details: Severe acute respiratory syndrome coronavirus 2, wild-type novel coronavirus, MOI=0.0125, 24 hours
in vitro = details: African green monkey
[2] = Cytotoxicity in the cytopathic model, without virus infection (CellTiter Glo); details: human
[3] = set-up: species or system C57BL/6J male mice; details: mouse, in vivo
Experimental: In this study, C57BL/6J male mice were selected as test animals, and LC/MS/MS method was used to quantitatively measure the plasma concentration of the test compound 11 at different time points after oral administration and injection in mice, so as to evaluate the pharmacokinetic characteristics of the test drug in mice.
The test compound dissolved in 30% PEG400+70% normal saline was administered to mice (overnight fasting, 6-8 weeks old) by intragastric administration. 25 µL of blood was collected at 0.083, 0.25, 0.5, 1, 2, 4, 8, 12 and 24 hours after administration, respectively, and placed in commercial anticoagulation tubes pre-added with EDTA-K2, centrifuged at 4° C., 3200 g for 10 min to obtain plasma, and after the plasma sample was treated, the plasma concentration was determined by LC-MS/MS method.

[4] = set-up: species or system C57BL/6J male mice; details: mouse, in vivo, po, 10 mg/kg
Experimental: In this study, C57BL/6J male mice were selected as test animals, and the LC/MS/MS method was used to quantitatively measure the plasma concentrations of mice in combination with Ritonavir at different time points, so as to evaluate the pharmacokinetic characteristics of the test drug in mice.
Firstly, 10 mpk of Ritonavir was administered to mice by intragastric administration at -12 h and 0 h, and then the test compound was dissolved in 30% PEG400+70% normal saline solution and administered to mice by intragastric administration (overnight fasting, 6 to 8 weeks old). 25 µL of blood was collected at 0.083, 0.25, 0.5, 1, 2, 4, 8, 12 and 24 hours after administration to animals, placed in a commercial anticoagulant tube pre-added with EDTA-K2, and centrifuged at 4° C., 3200 g for 10 min to obtain plasma. After the plasma samples were treated, the plasma concentration was determined by LC-MS/MS method.

[5] = Tissue distribution test in rats (plasma and lung, with Ritonavir); format: in vivo, SD male rats; details: 30 mpk p.o. with Ritonavir 10 mpk
Experimental: In this study, SD male rats were selected as test animals, and the drug concentrations of test compounds in plasma and lungs of rats at different time points were quantitatively measured by LC/MS/MS method to evaluate the pharmacokinetic characteristics of test drugs in rats.
Firstly, 10 mpk of Ritonavir was administered to rats by intragastric administration at -12 h and 0 h, and 30 mpk of the test compound was dissolved in 10% Solutol + 30% PEG 400 + 2% Tween 80+H2O 58% solution and administered to rats by intragastric administration (overnight fasting). 40 µL of blood was collected from the saphenous vein of rats at 0.25, 1 and 6 hours after administration, placed in an anticoagulant tube added with EDTA-K2, centrifuged at 4° C., 3200 g for 10 min to obtain plasma, and some animals were killed at 0.25, 1 and 6 hours respectively to collect lung tissue. After the plasma samples were treated, the plasma concentration was determined by LC-MS/MS method.

Vero cells = details: 24 hours
[6] = 25 nM Mpro protein, 25 µM substrate, read-out: IC50

Structure (SMILES) | pIC50 (SARS-CoV-2 Mpro) | pEC50 (coronavirus HCoV OC43; Betacoronavirus 1, 120 h) | pEC50 [1] | CC50 (in vitro) [µM] | CC50 at 5 days [2] [µM] | pIC50 (SARS-CoV-2 Mpro; [6]) | other results
N#C[C@H](C[C@@H]1CCNC1=O)NC(=O)[C@@H]1[C@H]2CC[C@H](C2)N1C(=O)[C@@H](NC(=O)C(F)(F)F)C12CCC(CC1)CC2 [Compound 4] | 7.28 | 6.85 | 7.52 | > 5 | > 10 |  | 
CC1([C@H](NC(=O)C(F)(F)F)C(=O)N2[C@@H]3CC[C@@H](C3)[C@H]2C(=O)N[C@H](C#N)C[C@@H]2CCNC2=O)CCCCC1 [Compound 7] | 7.21 |  |  |  |  |  | 
CC(C)(C)[C@H](NC(=O)C(F)(F)F)C(=O)N1[C@H]2C[C@@H]([C@H]1C(=O)N[C@H](C#N)C[C@@H]1CCNC1=O)C1(CC1)C2 [Compound 11] |  |  |  |  |  | 8.27 | pEC50 (coronavirus HCoV OC43): 8.46; AUC0-last ([3]; iv, 3 mg/kg): 1447 nM·h; CL ([3]; iv, 3 mg/kg): 68.5 mL/min/kg; T½ ([3]; iv, 3 mg/kg): 12 min; Vdss ([3]; iv, 3 mg/kg): 0.9 L/kg; AUC0-last ([3]; po, 10 mg/kg): 1519 nM·h; Cmax ([3]; po, 10 mg/kg): 1860 nM; Tmax ([3]; po, 10 mg/kg): 15 min; AUC0-last [4]: 28.683 µM·h; Cmax [4]: 10.1 µM; Tmax [4]: 30 min; Ratio lung/plasma of AUC(0-6 h) [5]: 2.6/1; Ratio lung/plasma ([5]; 0.25 h): 5.5/1; Ratio lung/plasma ([5]; 1 h): 3.2/1; Ratio lung/plasma ([5]; 6 h): 1.6/1; CC50 (MRC5 cells): > 10 µM; CC50 (Vero cells): > 5 µM
N#C[C@H](C[C@@H]1CCNC1=O)NC(=O)[C@@H]1[C@H]2CC[C@H](C2)N1C(=O)[C@@H](NC(=O)C(F)(F)F)C12CC3CC(CC(C3)C1)C2 [Compound 3] | 7.68 | 7.21 | 7.46 | > 5 | > 10 |  | 
CC1C[C@H]2C[C@@H]1N(C(=O)[C@@H](NC(=O)C(F)(F)F)C(C)(C)C)[C@@H]2C(=O)N[C@H](C#N)C[C@@H]1CCNC1=O (stereo partly shown) [Compound 5] |  | 6.69 | 7.70 | > 5 | > 10 |  | 
CC(C)(C)[C@H](NC(=O)C(F)(F)F)C(=O)N1[C@H]2C[C@@H]([C@H]1C(=O)N[C@H](C#N)C[C@@H]1CCNC1=O)C(F)(F)C2 [Compound 6] | 6.87 |  |  |  |  |  | 
Cc1ccc(CC(=O)N[C@H](C(=O)N2[C@@H]3CC[C@@H](C3)[C@H]2C(=O)N[C@H](C#N)C[C@@H]2CCNC2=O)C23CC4CC(CC(C4)C2)C3)cc1 [Compound 13] |  |  |  |  |  | 7.12 | 
CC1C[C@@H]2C[C@H]1[C@@H](C(=O)N[C@H](C#N)C[C@@H]1CCNC1=O)N2C(=O)[C@@H](NC(=O)C(F)(F)F)C12CC3CC(CC(C3)C1)C2 (stereo partly shown) [Compound 12] |  |  |  |  |  | 7.77 | 
CC(C)(C)[C@H](NC(=O)C(F)(F)F)C(=O)N1[C@H]2C[C@@H]([C@H]1C(=O)N[C@H](C#N)C[C@@H]1CCNC1=O)C(F)(F)C2 [Compound 10] |  |  |  |  |  | 7.77 | 
